target: Protein Kinase C beta 2 (PKCβII) (Homo sapiens (Human), UniProt P05771); assay: PKCβII coupled PK/LDH spectrophotometric kinase assay; assay type: biochemical; details: apparent Ki, ATP-competitive model (Morrison equation); 0.1 mM ATP, 30° C.; read-out: PKCb Ki
Description: This transfer is coupled to the oxidation of β-NADH through the activities of Pyruvate Kinase (PK) and Lactate Dehydrogenase (LDH). β-NADH conversion to NAD+ is monitored by the decrease in absorbance at 340 nm (e=6.22 cm^−1 mM^−1) using a Molecular Devices SPECTRA max PLUS spectrophotometer.
A typical assay was carried out on a 96-well, clear microtiter plate in a Molecular Devices spectrophotometer for 20 minutes at 30° C. in 0.1 mL of assay buffer containing 50 mM HEPES, pH 7.4, 5 nM PKC, 23 units of pyruvate kinase, 33 units of lactate dehydrogenase, 0.15 mM peptide, 0.1 mM ATP, 1 mM DTT, 4 mM PEP, 8 mM MgCl2, 0.3 mM NADH, 60 mM CaCl2, 10 mg/mL PS, 50 ng/mL PMA, 7.5% DMSO and from about 10,000 nM to 0.169 nM compound inhibitor. Stock solutions of 3-sn-phosphatidyl-L-serine (PS) and phorbol-12-myristate-13-acetate (PMA) were sonicated for 30 seconds just prior to addition to assay buffer and assays were initiated by the addition of 100 μM ATP.
Enzyme turnover values (kcat) were calculated according to […], where [E] is the total enzyme concentration. Enzyme inhibition constants (apparent K values) were determined by fitting initial velocities at variable inhibitor concentrations to a model for ATP competitive inhibition based on the Morrison equation). Morrison, J. F., Biochim. Biophys Acta 185: 269-286 (1969).

Protein Kinase C beta 2 (PKCβII), sequence (P05771 other isoform, or with tags, fused parts or gaps): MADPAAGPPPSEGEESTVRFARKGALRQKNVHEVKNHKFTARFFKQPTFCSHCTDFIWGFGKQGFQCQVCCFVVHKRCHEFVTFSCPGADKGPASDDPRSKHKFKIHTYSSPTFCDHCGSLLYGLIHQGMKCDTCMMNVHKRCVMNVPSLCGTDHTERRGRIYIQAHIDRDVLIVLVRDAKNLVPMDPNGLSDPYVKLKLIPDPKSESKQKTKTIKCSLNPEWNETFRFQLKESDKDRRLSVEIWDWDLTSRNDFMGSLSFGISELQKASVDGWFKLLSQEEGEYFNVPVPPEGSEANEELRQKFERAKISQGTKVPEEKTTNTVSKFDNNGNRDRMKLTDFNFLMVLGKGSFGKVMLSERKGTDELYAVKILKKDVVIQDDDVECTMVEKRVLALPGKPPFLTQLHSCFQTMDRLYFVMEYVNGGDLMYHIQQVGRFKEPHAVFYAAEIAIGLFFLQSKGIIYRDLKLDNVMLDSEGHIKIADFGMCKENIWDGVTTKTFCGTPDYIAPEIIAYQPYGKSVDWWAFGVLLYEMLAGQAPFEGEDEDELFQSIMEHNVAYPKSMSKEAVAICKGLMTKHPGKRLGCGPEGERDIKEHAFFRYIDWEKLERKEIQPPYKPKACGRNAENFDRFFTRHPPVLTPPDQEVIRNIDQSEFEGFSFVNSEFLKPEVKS

Row | Ki [nM] | SMILES
1 | 15.2 | CC[C@H](C)[C@H]1CN2C[C@H](O)C[C@H]2CN1C(=O)N1Cc2c(NC(=O)c3ccccn3)n[nH]c2C1(C)C [Example A85]
2 | 58.6 | C[C@H]1CN2CCC[C@H]2CN1C(=O)N1Cc2c(NC(=O)c3cc(C4CC4)on3)n[nH]c2C1(C)C [Example E12]
3 | 96.1 | CCC[C@H]1CN2CCC[C@H]2CN1C(=O)N1Cc2c(NC(=O)c3ccccc3)n[nH]c2C1(C)C [Example A28]
4 | 21.7 | C[C@@H]1CN(C(=O)N2Cc3c(NC(=O)c4ccc(F)cn4)n[nH]c3C2(C)C)[C@@H](C)CN1CCCO [Example A162]
5 | 81.8 | CC1(C)CN2CCC[C@H]2CN1C(=O)N1Cc2c(NC(=O)c3ccccn3)n[nH]c2C1(C)C [Example A82]
6 | 103 | CC(C)C[C@H]1CN2CCC[C@H]2CN1C(=O)N1Cc2c(NC(=O)c3ccc4ccccc4n3)n[nH]c2C1(C)C [Example A12]
7 | 42 | C[C@H]1CN(C)[C@H](CCO)CN1C(=O)N1Cc2c(NC(=O)c3ccccn3)n[nH]c2C1(C)C [Example A150]
8 | 13.9 | C[C@@H]1CN(C(=O)N2Cc3c(NC(=O)c4ccccn4)n[nH]c3C2(C)C)[C@@H](C)CN1C [Example A113]
9 | 20 | Cc1noc(C)c1CC(=O)Nc1n[nH]c2c1CN(C(=O)N1C[C@@H](C)N(CC3CCOCC3)C[C@@H]1C)C2(C)C [Example F59]
10 | 187 | CN1CCN(C(=O)N2Cc3c(NC(=O)c4cccs4)n[nH]c3C2(C)C)[C@@H](Cc2ccccc2)C1 [Example A6]
11 | 52.7 | C[C@@H]1CN(C(=O)N2Cc3c(NC(=O)c4cnccn4)n[nH]c3C2(C)C)[C@@H](C)CN1CC1CCOCC1 [Example F57]
12 | 28.9 | Cc1nc(C)c(C(=O)Nc2n[nH]c3c2CN(C(=O)N2C[C@@H]4CCCN4C[C@@H]2C)C3(C)C)o1 [Example E11]
13 | 15.9 | C[C@H]1CN2CCC[C@H]2CN1C(=O)N1Cc2c(NC(=O)c3ccc4c(c3)CCO4)n[nH]c2C1(C)C [Example A64]
14 | 24.5 | COCCCN1C[C@H](C)N(C(=O)N2Cc3c(NC(=O)c4ccc(F)cn4)n[nH]c3C2(C)C)C[C@H]1C [Example A163]
15 | 87.4 | CC1(C)CN2CCC[C@H]2CN1C(=O)N1Cc2c(NC(=O)c3cccc(Cl)c3)n[nH]c2C1(C)C [Example A57]
16 | 17.8 | C[C@H]1CN2CCC[C@H]2CN1C(=O)N1Cc2c(NC(=O)c3ccc4ccccc4n3)n[nH]c2C1(C)C [Example A88]
17 | 87.1 | C[C@H]1CN(C)C(C)(C)CN1C(=O)N1Cc2c(NC(=O)c3ccc(F)cc3F)n[nH]c2C1(C)C [Example A114]
18 | 625 | COCCCN1C[C@H](C)N(C(=O)N2Cc3c(NC(=O)c4cnccn4)n[nH]c3C2(C)C)C[C@H]1C [Example F3]

Row | Ki [nM] | SMILES
19 | 55.9 | CC1(C)c2[nH]nc(NC(=O)c3cccc(Cl)n3)c2CN1C(=O)N1CCN2CCCC2C1 (centres unmarked) [Example A23]
20 | 22.6 | Cc1nc(C)c(C(=O)Nc2n[nH]c3c2CN(C(=O)N2C[C@@H](C)N(CC4CCOCC4)C[C@@H]2C)C3(C)C)s1 [Example F10]
21 | 17.6 | C[C@@H]1CN(C(=O)N2Cc3c(NC(=O)c4ccccn4)n[nH]c3C2(C)C)[C@@H](C)CN1CCC1CCOCC1 [Example A145, N-(5-((2R,5S)-2,5-dimethyl-1-(2(tetradehydro-2H-pyran-4-yl)methyl)piperazine-4-carbonyl)-6,6-dimethyl-1,4,5,6-tetrahydropyrrolo[3,4-c]pyrazol-3-yl)picolinamide]
22 | 36.2 | CC1CN(C(=O)N2Cc3c(NC(=O)c4ccccn4)n[nH]c3C2(C)C)C(C)CN1 (centres unmarked) [Example A46]
23 | 74.1 | CCC1(C)c2[nH]nc(NC(=O)c3ncc(F)cc3F)c2CN1C(=O)C1C[C@@H]2CCCN2C[C@@H]1C (some centres unmarked) [Example A86]
24 | 16.1 | CC1(C)c2[nH]nc(NC(=O)c3ccc4ccccc4n3)c2CN1C(=O)N1C[C@@H]2CCCN2C[C@@H]1Cc1ccccc1 [Example A14]
25 | 133 | C[C@@H]1CN(C(=O)N2Cc3c(NC(=O)c4ncccn4)n[nH]c3C2(C)C)[C@@H](C)CN1CC1CCOCC1 [Example F58]
26 | 71.8 | COCCCN1C[C@H](C)N(C(=O)N2Cc3c(NC(=O)c4oc(C)cc4C)n[nH]c3C2(C)C)C[C@H]1C [Example F5]
27 | 45.1 | Cc1ocnc1C(=O)Nc1n[nH]c2c1CN(C(=O)N1C[C@@H](C)N(C)C[C@@H]1C)C2(C)C [Example C4]
28 | < 10 | C[C@@H]1CN(C(=O)N2Cc3c(NC(=O)c4ccc(F)cn4)n[nH]c3C2(C)C)[C@@H](C)CN1C1CCOCC1 [Example A149]
29 | 67.8 | CC[C@H]1CN2CCC[C@H]2CN1C(=O)N1Cc2c(NC(=O)c3ccccc3)n[nH]c2C1(C)C [Example A69]
30 | 38.3 | C[C@@H]1CN(C(=O)N2Cc3c(NC(=O)c4ccccn4)n[nH]c3C2(C)C)[C@@H](C)CN1CCCCC#N [Example A144]
31 | 61.9 | CCC1(CC)c2[nH]nc(NC(=O)c3ccccn3)c2CN1C(=O)N1C[C@@H]2CCCN2C[C@@H]1C [Example A132]
32 | 45.9 | CCCN1C[C@H](C)N(C(=O)N2Cc3c(NC(=O)c4ccc(F)cc4F)n[nH]c3C2(C)C)C[C@H]1CCO [Example A102]
33 | 19.9 | CC1CN(C(=O)N2Cc3c(NC(=O)c4ccccn4)n[nH]c3C2(C)C)C(C)CN1CCCO (centres unmarked) [Example A99]
34 | 46.5 | Cc1ncoc1C(=O)Nc1n[nH]c2c1CN(C(=O)N1C[C@@H](C)N(C)C[C@@H]1C)C2(C)C [Example C5]
35 | < 10 | C[C@@H]1CN(C(=O)N2Cc3c(NC(=O)c4ccc(C#N)cn4)n[nH]c3C2(C)C)[C@@H](C)CN1CC1CCOCC1 [Example G3]
36 | 67.1 | COCCCN1C[C@H](C)N(C(=O)N2Cc3c(NC(=O)Cc4c(C)noc4C)n[nH]c3C2(C)C)C[C@H]1C [Example F7]

Row | SMILES | Ki [nM]
37 | CN1CCN(C(=O)N2Cc3c(NC(=O)c4ccc5ccccc5n4)n[nH]c3C2(C)C)[C@@H](Cc2ccccc2)C1 [Example A8] | 78.1
38 | CCc1ocnc1C(=O)Nc1n[nH]c2c1CN(C(=O)N1C[C@@H](C)N(CC3CCOCC3)C[C@@H]1C)C2(C)C [Example F15] | 52.1
39 | CN1CCN(C(=O)N2Cc3c(n[nH]c3NC(=O)c3cc4ccccc4s3)C2(C)C)[C@@H](Cc2ccccc2)C1 [Example A4] | 146
40 | C[C@H]1CN2CCC[C@H]2CN1C(=O)N1Cc2c(NC(=O)c3nc4ccccc4s3)n[nH]c2C1(C)C [Example A54] | 49.9
41 | CC[C@@H]1CN(C(=O)N2Cc3c(NC(=O)c4ccccn4)n[nH]c3C2(C)C)[C@@H](C)CN1C [Example A131] | 37.2
42 | C[C@@H]1CN(C(=O)N2Cc3c(NC(=O)c4ccccn4)n[nH]c3C2(C)C)C[C@H](C)N1 [Example A29] | 77.6
43 | COc1cccc(C(=O)Nc2n[nH]c3c2CN(C(=O)N2C[C@@H]4CCCN4C[C@@H]2C)C3(C)C)c1 [Example E5] | 37.5
44 | C[C@H]1CN2CCC[C@H]2CN1C(=O)N1Cc2c(NC(=O)c3ccc(Cl)cn3)n[nH]c2C1(C)C [Example A67] | 24.3
45 | COc1cccc(C(=O)Nc2n[nH]c3c2CN(C(=O)N2C[C@@H]4CCCN4C[C@@H]2Cc2ccccc2)C3(C)C)c1 [Example A17] | 16.1
46 | C[C@H]1CN2CCC[C@H]2CN1C(=O)N1Cc2c(NC(=O)c3ccc(F)c(Cl)c3)n[nH]c2C1(C)C [Example A34] | 21.9
47 | Cn1ccnc1C(=O)Nc1n[nH]c2c1CN(C(=O)N1C[C@@H]3CCCN3C[C@@H]1Cc1ccccc1)C2(C)C [Example A26] | 69.3
48 | CCCN1C[C@H](C)N(C(=O)N2Cc3c(NC(=O)c4ccccn4)n[nH]c3C2(C)C)C[C@H]1CCO [Example A83] | 9.53
49 | CCc1ccc(C(=O)Nc2n[nH]c3c2CN(C(=O)N2C[C@@H]4CCCN4C[C@@H]2C)C3(C)C)cc1 [Example A61] | 23.8
50 | C[C@@H]1CN(C(=O)N2Cc3c(NC(=O)c4cc(C5CC5)n[nH]4)n[nH]c3C2(C)C)[C@@H](C)CN1CC1CCOCC1 [Example F17] | 19.4
51 | CC[C@H]1CN2CCC[C@@]2(C)CN1C(=O)N1Cc2c(NC(=O)c3ccc(F)cn3)n[nH]c2C1(C)C [Example A139] | 75.2
52 | C[C@H]1CN2CCC[C@H]2CN1C(=O)C1Cc2c(NC(=O)c3cc(Cl)cc(Cl)c3)n[nH]c2C1(C)C (some centres unmarked) [Example A30] | 22.9
53 | C[C@H]1CN(C)C(C)(C)CN1C(=O)N1Cc2c(NC(=O)c3ccccn3)n[nH]c2C1(C)C [Example A129] | 18.1
54 | CC(C)[C@H]1CN(C)C(C)CN1C(=O)N1Cc2c(NC(=O)c3ccc(Cl)cn3)n[nH]c2C1(C)C (some centres unmarked) [Example A135] | 51.2
55 | C[C@@H]1CN(C(=O)N2Cc3c(NC(=O)c4ccn(C)n4)n[nH]c3C2(C)C)[C@@H](C)CN1CC1CCOCC1 [Example F16] | 25.8
56 | C[C@H]1CN2CCC[C@H]2CN1C(=O)N1Cc2c(NC(=O)c3ccc(F)c(Cl)c3)n[nH]c2C1(C)C [Example A49] | 53.6
57 | C[C@@H]1CN(C(=O)N2Cc3c(NC(=O)c4cn(C)cn4)n[nH]c3C2(C)C)[C@@H](C)CN1CC1CCOCC1 [Example F9] | 62.4
58 | Cc1nonc1C(=O)Nc1n[nH]c2c1CN(C(=O)N1C[C@@H](C)N(CC3CCOCC3)C[C@@H]1C)C2(C)C [Example F22] | 47.3
59 | CCc1cc(C(=O)Nc2n[nH]c3c2CN(C(=O)N2C[C@@H]4CCCN4C[C@@H]2C)C3(C)C)no1 [Example E1] | 61.6
